Assay results published in patent publication US5906922A, “Delivery of nucleic acids” (Commonwealth Scientific and Industrial Research Organisation, priority 1994, dated 1999).
Entries after “also recorded” stand apart in the source; their conditions may differ. Like-named read-outs stand apart in the source and are kept apart here. Where a SMILES comes first, the peptide text is derived from it. The star is where a group is joined. NHC(CH2O-Palmitoyl)3 = CCCCCCCCCCCCCCCC(=O)OCC(COC(=O)CCCCCCCCCCCCCCC)(COC(=O)CCCCCCCCCCCCCCC)N*; X3 = CCCCCCCCCCCCCC(=O)OCC(CO)(CO)N*; X2 = CCCCCCCCCCCC(=O)OCC(CO)(CO)N*

What was measured:
[1] = Electron microscopy of formulated and unformulated compounds; assay type: physicochemical; details: negatively stained
Description: Solutions of formulated and unformulated compounds were analysed for potential membrane-like structure. In separate experiments the following samples were analysed:
a: Negatively stained samples of formulated compounds K3ATP2:DOPE, DOPE and the unformulated compounds K3C7ATL3 and Lipofectamine.
b: Rotary shadowed samples of K3C7ATL3 and Lipofectamine mixed with two ratios of nucleotide (plasmid).
Stock samples of liposomes at 2 mM, were diluted 1 in 10 with filtered distilled water, and mixed 1:1 with filtered negative stain (Ammonium Molybdate 2%, pH 6.5) and spread onto carbon-formvar coated copper/rhodium 200 mesh electron microscope grids, and examined in a Jeol JEM 100CX electron microscope at 60 kV at magnifications of between 33 k and 100 k.
Ratios of 0.69, and 0.25, of liposome:1 mole DNA nucleotides were diluted in water and mixed for 10 min at room temperature, spread onto carbon-formvar coated grids and rotary metal-shadowed with platinum-palladium (60:40) evaporated at an angle of 7° and examined in the electron microscope at 60 kV at magnifications between 26 k and 66 k.

CHO cells [2] = experiment: Transfection of pSVLCAT, CAT assay, CHO; assay type: cell-based, Chinese Hamster
Description: Protocol was the same for Verafectin and Transfectam (see above) with the exception that 0.5 μg of pSVLCAT DNA was used /60 mm dish.
Lipofectamine protocol was according to manufacturer's instructions. 0.5 μg pSVLCAT/60 mm dish. CHO cells seeded 1×10^5 /60 mm dish and adhered overnight in DME/Hams medium with 10% FCS.
Transfectam 5 or 10 μl 1mg/400 μl stock solution.
Lipofectamine 5 or 10 μl 2 mg/ml (mixed formulation 3:1 with DOPE). VerafectinA3 (K3ATP3) and VerafectinG2 (K3G[Glycine]TP2) each at 5, 10 and 15 μl of 2 mM (2.8 and 2.3 mg/ml respectively) stock.
The serum free incubation period in the presence of test agents and DNA was 6 hours, then 1 ml DME/Hams+10% FCS was added. At 24 hrs the medium was changed to 2 ml of fresh DME/Hams+10% FCS until harvest at 48 hrs.
(§1) Cell lines Cos 1 or CHO were transfected with 0.5 μg of pSVLCAT or 2 μg of pPGKlacZ plasmid using a range of concentrations of each transfection compound. The optimal concentration of compound, that is the concentration giving the highest level of CAT at 48 hours or the greatest percentage of lac z (β-galactosidase) staining cells at 24 hours was used to collate data for Table 1. As all compounds were not tested in a single experiment, absolute figures indicating transfection were not used. Rather, symbols are used to indicate the transfection efficiency relative to Lipofectamine (BRL), which was included as a control in all experiments. Table 1 thus indicates the relative efficiencies of a number of compounds in mediating the transfection of at least one cell type.
(§2) All test lipopeptide reagents were originally dissolved at 10 mM in 75% DMSO, and subsequently diluted with water to make a 2 mM stock stored at 4° C. Volumes of 2 mM stock lipopeptide ranging from 2 μl to 15 μl were diluted in 500 μl of DDME. 1 μg of plasmid pSVLCAT was separately diluted in 500 μl of DDME. Solutions were combined for 10-20 min at room temperature before adding to 500 μl of DDME in 60 mm dishes of subconfluent CHO cells (2×10^5 day-1) or Cos 1 cells (5×10^5 day-1); washed free of serum with DDME.
(§3) Cells were incubated for 6 hrs under standard conditions of 37° C. and 5% CO2 for 6 hours. 1.5 ml of DME/Hams+10% FCS (CHO) or DME+10% FCS (Cos 1) was added to the cells for overnight incubation. Fresh DME/Hams+10% FCS or DME+10% FCS was used to replace the medium for a further 24 hours prior to harvest. Cell lysates were prepared and assayed for CAT activity as described above. For Cos 1 cells, culture supernatants were assayed for CAT activity.
a. Using the standard transfection procedure described above, and 1 μg plasmid pSVLCAT, these formulations were tested on CHO cells at a single concentration equivalent to 10 μl of Verafectin A2 (2 mM) per sample and compared to unformulated compound and Lipofectamine in the same cell type. CAT production was assayed 48 hours after transfection.

CHO cells [3] = assay type: cell-based, Chinese Hamster
Description: (LEGEND--FIGS. 7, 8 and 9; none; no agent used with plasmid DNA, rb/blank; reagent blank, number following description of compound indicates no. μl of 2 mM stock (diluted with water). 7b: 100% cell survival was taken from dishes which were "mock transfected" with no DNA or transfection agent. 0% viability was assayed in the absence of cells. Viability was assessed using the dye alamar blue.)
(§4) Relative levels of cytotoxicity caused by the different agents were compared during the experiment using the dye "Alamar Blue" (Alamar, Sacramento Calif.).
(§5) The ratio of [lipid]/[DNA] at which that maximum was achieved is shown in brackets for the two different cell types in the following order; (Cos 1) (CHO). Experiments shown were carried out in Cos 1 cells, as described above. Viability was measured with the dye alamar blue . # Denotes compounds tested in a separate experiment. * Viability in this experiment was determined with MTS. OD is a measure of relative viability of the cells exposed to the different agents, and as with alamar blue, a higher value indicates greater cell viability.

CHO cells [4] = experiment: β-gal microtitre plate transfection assay, CHO; assay type: cell-based, Chinese Hamster; details: Table 3, CHO; for β-gal (CHO): highest reading of 72 conditions
From the text: (§6) For experiment "c", a plasmid pPGKlaczNLS encoding β-galactosidase under the control of the mouse PGK promoter (kind gift from G.Hannan) or pSVGAL which utilises the SV40 early promoter (Sleigh, M. J. and Lockett, T. J. (1985). EMBO J. 4:3831-3837),was transfected. This experiment and assay were modified from Feigner et al J. Biol Chem. 269(4) 2550-2561 1994. This protocol allows the simultaneous assessment of 72 different combinations and concentrations of DNA and test agent in a microtitre tray. […] Cytotoxicity was assessed using alamar blue, and a sample graph is shown for experiment a.
(§7) Each of these compounds was tested for transfection ability and cytotoxicity on standard cell lines using standard conditions as described above.
as §5

Cos 1 cells [5] = assay type: cell-based, African Green Monkey
From the text: as §4, §6
(§8) The ratio of [lipid]/[DNA] at which that maximum was achieved is shown. Experiments shown were carried out in Cos 1 cells, as described above. MTS OD is a measure of relative viabilility of the cells exposed to the different agents, a higher value indicates greater cell viability. * These points were taken from a separate experiment and some slight variation between absolute numbers should be expected between experiments.
as §5

Cos 1 cells [6] = experiment: β-gal microtitre plate transfection assay, Cos 1; assay type: cell-based, African Green Monkey
From the text: as §6
Compounds were tested for their ability to transfect either the CAT or β-gal gene carried on plasmids, and assayed as described above.
as §8, §7, §5

Cos 1 cells [7] = assay type: cell-based, African Green Monkey; remark: listed apart in the source
Description: Relative levels of cytotoxicity were also assayed in subsequent experiments using the dye MTS, marketed as Cell titre 96 Aqueous (Promega).
as §8, §5

Cos 1 cells [8] = experiment: Transfection of pSVLCAT, CAT assay, Cos 1; assay type: cell-based, African Green Monkey
Description: To test the transfection properties of the lead compound K3ATP3 (VerafectinA3), whole uncut plasmid carrying the gene encoding CAT (chloramphenicol acetyl transferase) under the control of the SV40 late promoter, pSVLCAT (Cameron, F. H. and Jennings, P. A. (1989) PNAS 86, 9139-9143) was mixed with the test agent and put on Cos 1 cells under various conditions. After 48 hours of culture the level of secreted CAT was assayed from the culture medium.
Solution I: 1 μg Plasmid DNA in 500 μl Dulbeccos Modified Eagles Medium (DME)
Solution II: 0-20 μl VerafectinA3 (2.5 mg/ml 25% DMSO) in 500 μl DME, Vortex
Combine solution I and II, vortex briefly and incubate at room temperature for 10 min.
Add mix to washed cells in 60 mm tissue culture dishes (seeded 0.5×10^6 /dish previous day) for 6 hrs at 37° C., 5% C02. Add 2 ml DME+10% FCS for remainder of 48 hrs. Assay CAT levels in tissue culture medium (Sleigh, M. J. (1986) Anal. Biochem. 156.251-256).
a--Compare VerafectinA3 dissolved in DMSO or ethanol.
b--Compare VerafectinA3 on cells 6 hrs to overnight. VerafectinA3 at 10 mg/ml in 100% solvent was diluted to 2.5 mg/ml with water.
Transfection was carried out as for experiment 1. VerafectinA3 was left in contact with the cells for varying times.
Protocol was the same for the Verafectins as described above. Lipofectamine protocol was according to manufacturers instructions. Cos 1 cells were seeded at 5×10^5 /60 mm dish and adhered overnight in DME with 10% FCS.
Solution A: 0.5 μg pSVLCAT/60 mm dish.
Solution B: Lipofectamine 10 and 15 μl 2 mg/ml (mixed formulation 3:1 with DOPE).
OR; VerafectinA3 and VerafectinG2 20 μl 2 mM (2.8 and 2.3 mg/ml respectively) stock.
OR; VerafectinG2 was also tested with an equimolar amount of DOPE. VerafectinG2 and DOPE were mixed in DDME and vortexed for 30 seconds before use. Solutions A and B were combined before overlaying on washed cells.
The serum free incubation period in the presence of test agents and DNA was 6 hrs, then 1 ml DME+10% FCS was added. At 24 hours medium was changed to 2 ml fresh DME+10% FCS until harvest at 48 hrs.
as §1, §2, §3
For transfection of pSVLCAT and subsequent assay of CAT enzyme, experiments "a" and "b" were carried out as described above.

[9] = Table 2, Cos 1, * separate experiment
[10] = Table 3, Cos 1, highest reading of 72 conditions

Row | SMILES | Viability (CHO) (CHO cells [3]) | ratio [lipid]/[DNA] at which maximum was achieved (CHO cells [4]) | β-gal (CHO) (CHO cells [4]) | Viability (Cos 1) (Cos 1 cells [5]) | ratio [lipid]/[DNA] at which maximum was achieved (Cos 1 cells [6]; Table 2, Cos 1) | units β-gal (Cos 1 cells [6]; [9]) | ratio [lipid]/[DNA] at which maximum was achieved (Cos 1 cells [6]; Table 3, Cos 1) | β-gal (Cos 1) (Cos 1 cells [6]; [10]) | other results
1 | CCCCCCCC/C=C\CCCCCCCC(=O)OC[C@H](COP(=O)(O)OCCN)OC(=O)CCCCCCC/C=C\CCCCCCCC [DOPE, Dioleoyl phosphatidyl ethanolamine, reference compound] |  |  |  |  |  |  |  |  | liposome structure (TEM) [1]: does not form a true liposome; also recorded: did not under the same conditions; transfection by DOPE alone (CHO cells [2]; CHO, unformulated or "formulated"): gave no transfection
2 | CCCCCCCCCCCC(=O)OCC(CO)(CO)NC(=O)[C@H](C)NC(=O)[C@H](CCCCN)NC(=O)[C@H](CCCCN)NC(=O)[C@@H](N)CCCCN [K3ATL1] (H-KKKA-X2) | 0.072 | 2.77 | 2.99 × 10^-6 | 0.104 | 0.35 | 1.09 × 10^-5 units | .35 | 1.09 × 10^-5 | 
3 | CCCCCCCCCCCCCC(=O)OCC(CO)(CO)NC(=O)[C@H](C)NC(=O)[C@H](CCCCN)NC(=O)[C@H](CCCCN)NC(=O)[C@@H](N)CCCCN [K3ATM1] (H-KKKA-X3) | 0.07 | .69 | 5.18 × 10^-6 | 0.102 | 0.69 | 5.85 × 10^-6 units | .69 | 5.85 × 10^-6 | 
4 | CCCCCCCCCCCCCCCC(=O)OCC(COC(=O)CCCCCCCCCCCCCCC)(COC(=O)CCCCCCCCCCCCCCC)NC(=O)[C@H](C)NC(=O)[C@H](CCCCN)NC(=O)[C@H](CCCCN)NC(=O)[C@@H](N)CCCCN [K3ATP3, trilysine alanine tris tripalmitate] (H-KKKA-{NHC(CH2O-Palmitoyl)3}) |  |  |  | 0.077 | 0.69 |  |  | 3.52 × 10^-5 | CAT activity (mean) (CHO cells [2]; "x" peptide experiment a, CHO, 25 μl lysate, 20 min assay at 37° C., optimal level): 6237 cpm; mean level of CAT activity (CHO cells [2]; "x" peptide experiment c, CHO, 2 hours incubation of 20 μl lysate): 13467; CAT levels relative to Lipofectamine (CHO cells [2]; Experiment 3, CHO, 5 μl): ~18%; CAT levels relative to Transfectam (CHO cells [2]; Experiment 3, CHO, 5 μl): approximately 54%; CAT activity (mean) (CHO cells [2]; R1-R4 experiment e, CHO): 8325 cpm; Transfection (CAT) (CHO cells [2]; Table 1, CHO, optimised level of agent): +++; MTS OD490-655 (Cos 1 cells [7]): 1.244; Viability (Cos 1) (Cos 1 cells [7]): 1.24; amount giving peak CAT level (Cos 1 cells [8]; Experiment 1, 2.5 mg/ml stock, 10 μl (25 μg)): 10 µL; CAT levels (Cos 1 cells [8]; Experiment 1, 5 μl (12.5 μg) and above, 48 hours): Significant CAT levels; reduction of CAT levels, overnight compared to 6 hour incubation (Cos 1 cells [8]; Experiment 2): approximately 50%; CAT levels (Cos 1 cells [8]; Experiment 2, 10 μl (25 μg) and above): Significant levels of CAT; transfection level relative to Lipofectamine (Cos 1 cells [8]; Experiment 4, Cos 1, 48 hours): approximately 60%; Transfection (CAT) (Cos 1 cells [8]; Table 1, Cos 1, optimised level of agent): +++(+); units β-gal (Cos 1 cells [6]; Table 2, Cos 1, highest reading of 72 conditions): 2.73 × 10^-4 units; β-gal (Cos 1) (Cos 1 cells [6]; Table 3, Cos 1, # tested in a separate experiment): 2.73 × 10^-4
